Earlier results, collected in patent US20110257198A1, “PIPERIDINE DERIVATIVES USEFUL AS OREXIN ANTAGONISTS” (priority 2008, published 2011).
Ends that are not written are not given here.

Key:
rats [1] = conditions: rats (White et al 2005)
rats [2] = conditions: rats (Nair et al 2008)
freely-feeding rats = conditions: central administration, 4 hour time period
rat = conditions: central administration at the onset of the normal sleep period (Hagan et al 1999)

Compound | effect on hedonic eating (rats [1]) | effect on high-fat pellet self-administration (rats [2]) | increase of food intake over control rats receiving vehicle (freely-feeding rats) | effect on arousal (rat)
Cc1nc2ccc(NC(=O)Nc3ccnc4cccnc34)cc2o1 [SB334867] | potently reduced hedonic eating | attenuated high-fat pellet self-administration |  | 
orexin-A: polypeptide ligand for the orexin-1 receptor; an agonist of the orexin receptors (QPLPDCCRQKTCSCRLYELLHGAGNHAAGILTL; ends and bridges not checked; cysteine pairing not given here; UniProt O43612 34-66, looked up) |  |  | approximately four-fold | dose-related increase in arousal
